US10315990B2, “Isothiocyanate compounds and isothiocyanate XPO1 protein inhibitor drugs thereof” (DRIVINGFORCE THERAPEUTICS Co., Ltd., priority 2015, dated 2019)
Where two headings read alike, the source gives them in different places.

What was measured:
[1] = system: A2780; assay: Inhibitory activity for high metastasis type ovarian cancer cell line (MTT or CCK-8); type: cell-based; conditions: Homo sapiens
Description: (§1) The two cell lines were inoculated on 96-well cell culture plate in an amount of 6000 cells per well and cultured at 37° C. for 24 hours, and then treated solely with the representative compound added therein and cultured. Seventy-two hours later, MTT or CCK-8 method was used to detect the inhibitory activity of the representative compound for the high metastasis type ovarian cancer cell lines.

[2] = system: HO-8910; assay: as above; type: cell-based
Description: as §1

[3] = system: Saos-2; assay: Inhibitory activity for other high metastasis type cancer cell line (MTT or CCK-8); type: cell-based; conditions: Homo sapiens
[4] = system: HMLE-Snail cell line; assay: Formation of HMLE-Snail cell line spheroids; type: cell-based; conditions: read-out: Colony (%): cell colony number of drug-treated group/cell colony number of control group × 100%
Description: HMLE-Snail cell line is one of most classic cell models for studying tumor cell metastasis and EMT path. HMLE-Snail cell line highly expresses Snail protein, and thus one of most remarkable features thereof is that it has spherical cellular morphology (spheroid). […] The HMLE-Snail cell line used in the present invention was donated by Dr. Robert Weinberg from America Massachusetts Whitehead Institute. HMLE-Snail cells were suspended in a liquid culture medium (in which B-27 and N-2 were added, purchased from America Invitrogen Corporation) containing DMEM/F12 in a ratio of 1:1, in an amount of 1.0×10^3 cells/ml, and cultured in an ultra low attachment culture plate so as to allow spheroids to be formed. Seven days later, spheroids were collected by centrifugation, and counted. […] Docetaxel is a common clinical chemotherapy drug.

[5] = system: NCI-H1975; assay: cells; type: cell-based; conditions: Homo sapiens, NCI-H1975, 72 h
Description: (§2) NCI-H1975 and NCI-H1650 are two typical high metastasis type lung cancer cell lines. The therapeutic effect of the representative compound for the metastasis type lung cancers can be preliminarily assessed by detecting the inhibitory activity of the representative compound for the two cell lines. The lung cancer cell line was inoculated on 96-well cell culture plate in an amount of 6000 cells per well and cultured at 37° C. for 24 hours, and then treated solely with the compound added therein and cultured. Seventy-two hours later, MTT or CCK-8 method was used to detect the inhibitory activity of the compound for the two lung cancer cell lines.

[6] = system: NCI-H1650; assay: cells; type: cell-based; conditions: Homo sapiens, NCI-H1650, 72 h
Description: as §2

[7] = system: KYSE-70; assay: Inhibitory activity for other high metastasis type cancer cell line (MTT or CCK-8); type: cell-based; conditions: Homo sapiens
[8] = target: T1, XPO1 protein (Homo sapiens, UniProt O14980); assay: Inhibitory activity for XPO1 protein (NES-GFP nuclear export, laser confocal microscope); type: cell-based; conditions: for Activity (μM): inhibitory activity for XPO1 protein (full inhibitory concentration): NES-GFP nuclear export, cells treated for 2 hours
T1 construct: Sixteen hours later, NES-GFP plasmid was transfected with liposome; endogenous in cells
Source text: NES (nuclear export signal) is a nuclear export signal peptide recognized by XPO1 protein. XPO1 recognizes NES sequence peptide segment of biomacromolecule and exports the biomacromolecule out of nucleus. NES-GFP protein is obtained by co-expressing green fluorescence protein GFP and NES sequence peptide segment by using a eukaryotic expression plasmid. Inhibitory activity of the representative compound for XPO1 protein can be assessed by detecting influence of the compound on NES-GFP cell localization.
The cells were digested with trypsin, counted, and inoculated on 96-well plate in an amount of 1.5×10^4 cells per well. Sixteen hours later, NES-GFP plasmid was transfected with liposome.

[9] = system: Panc-1; assay: Inhibitory activity for other high metastasis type cancer cell line (MTT or CCK-8); type: cell-based; conditions: Homo sapiens
[10] = system: CaSki; assay: as above; type: cell-based; conditions: Homo sapiens, Ca-Ski
[11] = system: IL-6; assay: Serum IL-6 level of IBD animal model (ELISA); type: in vivo, SD rats; conditions: 80 mg/kg, three days after making the TNBS model
Source text: (§3) Inflammatory bowel disease is an autoimmune disease. […] The therapeutic effect of the representative compound for the immune system disease or inflammation can be assessed by detecting change in levels of some important cytokines such as TNF-α and IL-6 at downstream of the signal path.

[12] = system: 786-O; assay: Inhibitory activity for other high metastasis type cancer cell line (MTT or CCK-8); type: cell-based; conditions: Homo sapiens
[13] = system: IBD animal model; assay: Macroscopic pathological changes of IBD animal model (enteroclysis with TNBS); type: in vivo, SD rats; conditions: TNBS rats; for Macroscopic pathological score: 80 mg/kg intragastrically daily, score 0-5, 10 animals
Description: Eight-week-old male SD rats (10 rats per group) were fasted for 24 hours and anaesthetized with diethyl ether. 50% ethanol and TNBS (2,4,6-trinitrobenzenesulfonic acid) were mixed to prepare a solution. In the IBD model group, a tube made of vinyl resin was inserted 5 cm from anus, and enteroclysis was performed with the TNBS solution in a dose of 100 mg/kg. The rats were hung upside down 30 seconds later after the enteroclysis to ensure no leakage of the TNBS solution. In the control group, the TNBS solution was replaced with normal saline with which enteroclysis was performed. Seven days later after the enteroclysis with the TNBS solution or normal saline, animals were sacrificed and dissected. […] Two weeks later after treated with the drugs, the animals were sacrificed and dissected, and large intestine thereof was taken out and fixed in 4% formalin solution for 30 minutes. The large intestine of the animals was cut lengthwise from the mesentery side to take photos for rectum portion and measure the weight of rectum. Based on the macroscopic observation and judgment score (Table 2-1), ulceration and bleeding states of rectum portion were scored according to the macroscopic observation scoring standard.

[14] = system: TNF-α; assay: Serum TNF-α level of IBD animal model (ELISA); type: in vivo, SD rats; conditions: 80 mg/kg, three days after making the TNBS model
Source text: as §3

[15] = Safety testing via oral administration, 6 weeks; type: in vivo; conditions: intragastric, 6 weeks continuously, male and female SD rats
Description: The compound solution was intragastrically administrated to 6-week-old male and female SD rats (I-01: 500 mg/kg/day; I-03: 500 mg/kg/day; I-04: 500 mg/kg/day, I-06: 500 mg/kg/day, I-11: 300 mg/kg/day) for 6 weeks continuously (n=10 per group).

[16] = system: HCT116; assay: Inhibitory activity for high metastasis type colon cancer cell line (MTT or CCK-8); type: cell-based; conditions: Homo sapiens, HCT-116; HCT116, 72 hours; read-out: IC50
Description: (§4) SW620 and HCT116 are two typical high metastasis type colon cancer cell lines. The colon cancer cell line was inoculated on 96-well cell culture plate in an amount of 6000 cells per well and cultured at 37° C. for 24 hours, and then treated solely with the compound added therein and cultured. Seventy-two hours later, MTT or CCK-8 method was used to detect the inhibitory activity of the compound for the two high metastasis type colon cancer cell lines.

[17] = system: SW620; assay: as above; type: cell-based; conditions: Homo sapiens, SW-620; SW620, 72 hours; read-out: IC50
Description: as §4

[18] = system: Jeko-1; assay: Inhibitory activity for high metastasis type lymphoma cell line (MTT or CCK-8); type: cell-based; conditions: Homo sapiens; Jeko-1, 72 hours; read-out: IC50
Description: (§5) Jeko-1, Raji and U2932 are three typical high metastasis type lymphoma cell lines. The lymphoma cell line was inoculated on 96-well cell culture plate in an amount of 6000 cells per well and cultured at 37° C. for 24 hours, and then treated solely with the compound added therein and cultured. Seventy-two hours later, MTT or CCK-8 method was used to detect the inhibitory activity of the compound for the two high metastasis type lymphoma cell lines.

[19] = system: U2932; assay: as above; type: cell-based; conditions: Homo sapiens; U2932, 72 hours; read-out: IC50
Description: as §5

[20] = system: Raji; assay: as above; type: cell-based; conditions: Homo sapiens, 72 hours, read-out: IC50
Description: as §5

[21] = system: SK-OV3 (high metastasis type ovarian cancer cell line); assay: Ovarian cancer intraperitoneal metastasis animal model; type: in vivo, nudemice (BALB/c-nu/nu); conditions: Mus musculus, SK-OV-3, ip
Description: The ovarian cancer intraperitoneal metastasis animal model is one of most classic animal models for studying anti-ovarian cancer metastasis drug. Sixty 5 to 6-week-old female nudemice with similar weight (BALB/c-nu/nu) were chosen. SK-OV3 (high metastasis type ovarian cancer cell line) stably expressing green fluorescence protein was screened, and prepared into a cell suspension of 2×10^6 cells/100 μl with serum-free PRMI1640 medium. […] Three weeks later, the cancer was detected with a small animal in vivo imaging apparatus (Xenogen, School of Medicine, Shanghai Jiaotong University) and photos thereof were taken. […] In the table, T represents the drug-treated group, and C represents the blank control group. T/C is (V/V0 of compound-treated group)/(V/V0 of blank control group) in which V represents the cancer volume of mouse on the day the detection was performed, and V0 represents the cancer volume of mouse on the day the administration begun.

[22] = 10 μg/ml, treated for 24 hours, control = 100

T1 sequence (O14980 whole entry, species assumed): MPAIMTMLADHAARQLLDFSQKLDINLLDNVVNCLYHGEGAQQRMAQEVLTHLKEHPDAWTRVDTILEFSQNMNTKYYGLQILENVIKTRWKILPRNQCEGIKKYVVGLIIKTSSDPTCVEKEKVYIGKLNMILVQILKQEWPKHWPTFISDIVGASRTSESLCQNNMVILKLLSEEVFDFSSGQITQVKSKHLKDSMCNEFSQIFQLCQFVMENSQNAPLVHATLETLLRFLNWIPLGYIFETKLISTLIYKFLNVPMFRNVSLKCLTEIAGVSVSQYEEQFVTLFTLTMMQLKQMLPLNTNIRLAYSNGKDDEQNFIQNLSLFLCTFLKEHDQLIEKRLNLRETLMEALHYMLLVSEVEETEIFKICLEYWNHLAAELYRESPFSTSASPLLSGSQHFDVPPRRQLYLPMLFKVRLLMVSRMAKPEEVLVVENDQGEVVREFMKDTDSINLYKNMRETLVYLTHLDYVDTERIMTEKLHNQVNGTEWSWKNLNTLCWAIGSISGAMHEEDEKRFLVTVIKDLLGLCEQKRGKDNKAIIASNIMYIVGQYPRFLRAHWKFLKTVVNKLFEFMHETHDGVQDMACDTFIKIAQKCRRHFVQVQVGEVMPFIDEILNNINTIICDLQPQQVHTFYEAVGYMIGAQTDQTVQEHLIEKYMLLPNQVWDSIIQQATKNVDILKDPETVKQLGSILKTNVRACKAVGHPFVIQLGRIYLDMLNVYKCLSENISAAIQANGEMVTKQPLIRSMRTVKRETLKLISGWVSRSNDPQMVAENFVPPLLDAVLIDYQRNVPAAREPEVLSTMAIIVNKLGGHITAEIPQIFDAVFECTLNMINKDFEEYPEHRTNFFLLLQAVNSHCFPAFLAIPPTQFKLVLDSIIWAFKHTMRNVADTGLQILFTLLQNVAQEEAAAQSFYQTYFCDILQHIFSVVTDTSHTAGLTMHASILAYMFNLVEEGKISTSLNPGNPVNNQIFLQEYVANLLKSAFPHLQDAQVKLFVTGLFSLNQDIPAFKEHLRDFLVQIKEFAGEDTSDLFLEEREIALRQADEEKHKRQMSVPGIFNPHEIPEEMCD

Row | SMILES | Activity (μM): inhibitory activity for XPO1 protein (full inhibitory concentration) [8] [µM] | Serum IL-6 level, Animal-1 [11] [ng/mL] | Serum IL-6 level, Animal-2 [11] [ng/mL] | Serum IL-6 level, Animal-3 [11] [ng/mL] | Macroscopic pathological score [13] | Serum TNF-α level, Animal-1 [14] [ng/mL] | Serum TNF-α level, Animal-2 [14] [ng/mL] | Serum TNF-α level, Animal-3 [14] [ng/mL] | activity at 10 µg/mL [4, 22] [%] | other results
1 | [O-][S+](/C=C/CCN=C=S)c1ccccc1 (stereo not drawn) [Compound I-01] | 1 to 5 | 1.5 | 1.3 | 1.2 | 2.5 ± 0.1 | 1.5 | 1.2 | 1.2 |  | IC50 ([1]; A2780, 72 h): 2500 nM; IC50 ([2]; HO-8910, 72 h): 1900 nM; IC50 ([3]; SAOS-2, 72 h): 3200 nM; activity at 10 µg/mL ([4]; 24 h): 35 to 40%; IC50 [5]: 3100 nM; IC50 [6]: 2700 nM; IC50 ([7]; KYSE-70, 72 h): 2700 nM; NES-GFP cell localization (FIG. 1) ([8]; laser confocal micrograph): most of NES-GFP protein emitting green fluorescence is congregated in nucleus; IC50 ([9]; PANC-1, 72 h): 3300 nM; IC50 ([10]; 72 h): 2100 nM; IC50 ([12]; 786-0, 72 h): 1000 nM
2 | [O-][S+](/C=C/CCN=C=S)c1ccc(Cl)c(C(F)(F)F)c1 (stereo not drawn) [Compound I-03] | 0.5 to 1 | 0.9 | 0.8 | 0.7 |  | 1.3 | 1.1 | 0.7 | 25 to 30 | IC50 ([3]; Saos-2, 72 hours, read-out: IC50): 2600 nM; IC50 ([7]; KYSE-70, 72 hours, read-out: IC50): 1800 nM; IC50 ([9]; Panc-1, 72 hours, read-out: IC50): 1600 nM; IC50 ([10]; CaSki, 72 hours, read-out: IC50): 1500 nM; IC50 ([12]; 786-0, 786-O, 72 hours, read-out: IC50): 1300 nM
3 | [O-][S+](/C=C/CCN=C=S)c1ccc2ccccc2c1 (stereo not drawn) [Compound I-11] | 1 to 5 |  |  |  |  |  |  |  | 30 to 35 | nontoxic dose [15]: at least 300 mg/kg/day
4 | S=C=NCCc1ccccc1 [PEITC, phenylethylisothiocyanate, reference compound] | 30 | 2.2 | 2.1 | 2.1 | 3.5 ± 0.3 | 2.0 | 1.9 | 2.0 | 85 | IC50 ([1]; A2780, 72 hours, read-out: IC50): 17600 nM; IC50 ([2]; HO-8910, 72 hours, read-out: IC50): 15500 nM; IC50 [16]: 8400 nM; IC50 [17]: 10200 nM; IC50 [18]: 8700 nM; IC50 [19]: 11700 nM; IC50 [20]: 9300 nM; response vs control in vivo at 80 mg/kg ([21]; 504 h, 80 mg/kg intraperitoneal injection once a day for 3 weeks, read-out: T/C (%)): 71%; mortality at 80 mg/kg ([21]; 720 h, 80 mg/kg, six mice per group, read-out: Mortality (within 30 days) (converted)): 0%; colon tissue bleeding and ulceration phenomena (in words) ([13]; 80 mg/kg): small relief extent
